Active and inactive are the calls of the source. The calls are words filed in the database; no cut-off is given here.
Experiments:
[1] = biological target: Histone-lysine N-methyltransferase, H3 lysine-79 specific (Homo sapiens) (UniProt Q8TEK3); assay: Inhibition of […] (unknown origin) using [3H]SAM and HeLa oligo nucleosomes as substrates at 100 uM incubated for 1 hr relative to control
[2] = biological target: Histone-lysine N-methyltransferase EZH2 (Homo sapiens) (UniProt Q15910); assay: Inhibition of EZH2 (unknown origin) using [3H]SAM and chicken core histone as substrates at 100 uM incubated for 1 hr relative to control
Histone-lysine N-methyltransferase EZH2 (Homo sapiens), sequence (Q15910 whole entry, looked up): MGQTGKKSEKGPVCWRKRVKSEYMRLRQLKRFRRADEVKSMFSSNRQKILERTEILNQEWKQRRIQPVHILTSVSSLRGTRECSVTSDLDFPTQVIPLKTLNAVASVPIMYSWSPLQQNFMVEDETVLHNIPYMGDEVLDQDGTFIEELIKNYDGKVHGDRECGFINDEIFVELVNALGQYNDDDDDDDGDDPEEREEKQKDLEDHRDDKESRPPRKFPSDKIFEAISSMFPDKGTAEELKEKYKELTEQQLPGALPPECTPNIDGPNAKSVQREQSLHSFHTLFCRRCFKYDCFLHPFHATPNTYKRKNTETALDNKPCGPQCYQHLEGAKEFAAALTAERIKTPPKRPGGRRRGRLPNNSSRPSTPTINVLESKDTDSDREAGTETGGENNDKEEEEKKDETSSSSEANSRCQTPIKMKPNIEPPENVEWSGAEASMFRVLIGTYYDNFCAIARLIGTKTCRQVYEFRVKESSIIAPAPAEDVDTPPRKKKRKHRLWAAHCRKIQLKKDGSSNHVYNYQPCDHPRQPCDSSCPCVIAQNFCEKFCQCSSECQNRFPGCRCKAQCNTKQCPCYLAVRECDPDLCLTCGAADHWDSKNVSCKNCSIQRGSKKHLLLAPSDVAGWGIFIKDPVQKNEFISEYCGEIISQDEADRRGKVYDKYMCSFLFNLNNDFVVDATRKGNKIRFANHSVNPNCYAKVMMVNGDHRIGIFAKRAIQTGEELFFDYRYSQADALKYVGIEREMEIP

[3] = biological target: T1, MAO-A (amine oxidase [flavin-containing] A) (Homo sapiens, UniProt P21397); assay: Inhibition of human MAO-A using p-tyramine as substrate at 100 uM by fluorimetric analysis relative to control; settings: human MAO-A enzyme, probe p-tyramine
T1 sequence (P21397 whole entry): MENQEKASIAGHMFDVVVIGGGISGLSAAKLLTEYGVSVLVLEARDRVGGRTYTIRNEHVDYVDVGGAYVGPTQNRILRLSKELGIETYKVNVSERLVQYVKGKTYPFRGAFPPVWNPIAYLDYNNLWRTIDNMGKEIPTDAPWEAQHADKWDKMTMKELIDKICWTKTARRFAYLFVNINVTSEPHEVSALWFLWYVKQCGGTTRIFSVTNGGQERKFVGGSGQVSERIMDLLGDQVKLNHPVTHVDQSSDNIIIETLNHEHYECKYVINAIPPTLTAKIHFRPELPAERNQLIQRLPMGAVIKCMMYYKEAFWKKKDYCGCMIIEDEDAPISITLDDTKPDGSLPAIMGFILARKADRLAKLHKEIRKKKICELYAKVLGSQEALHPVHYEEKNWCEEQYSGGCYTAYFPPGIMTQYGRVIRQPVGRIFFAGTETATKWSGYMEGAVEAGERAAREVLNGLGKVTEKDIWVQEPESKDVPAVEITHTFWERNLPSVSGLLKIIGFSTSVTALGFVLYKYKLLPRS

[4] = biological target: T2, MAO-B (amine oxidase [flavin-containing] B) (Homo sapiens, UniProt P27338); assay: Inhibition of human MAO-B using p-tyramine as substrate at 100 uM by fluorimetric analysis relative to control; settings: human MAO-B enzyme, probe p-tyramine
T2 sequence (P27338 whole entry): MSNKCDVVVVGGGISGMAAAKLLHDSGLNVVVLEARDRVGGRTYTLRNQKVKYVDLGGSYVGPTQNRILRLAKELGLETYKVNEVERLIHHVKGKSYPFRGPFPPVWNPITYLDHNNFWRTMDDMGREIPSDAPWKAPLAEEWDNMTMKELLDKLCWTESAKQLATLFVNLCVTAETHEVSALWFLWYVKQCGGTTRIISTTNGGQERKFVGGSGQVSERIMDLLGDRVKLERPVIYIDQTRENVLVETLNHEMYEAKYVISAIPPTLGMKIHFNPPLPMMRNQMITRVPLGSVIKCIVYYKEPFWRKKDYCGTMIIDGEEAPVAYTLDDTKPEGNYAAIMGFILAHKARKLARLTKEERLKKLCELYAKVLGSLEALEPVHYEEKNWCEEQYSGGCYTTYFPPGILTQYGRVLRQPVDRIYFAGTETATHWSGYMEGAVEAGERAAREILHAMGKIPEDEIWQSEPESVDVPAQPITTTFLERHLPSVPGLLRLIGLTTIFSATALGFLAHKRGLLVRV

THP-1 [5] = assay: Antiproliferative activity against human THP-1 cells assessed as inhibition of cell growth incubated for 24 hrs by CellTiter-Glo luminescent cell viability assay; assay type: functional, cell-based; settings: THP-1, 24 h
THP-1 [6] = assay: Antiproliferative activity against human THP-1 cells assessed as inhibition of cell growth incubated for 72 hrs by CellTiter-Glo luminescent cell viability assay; assay type: functional, cell-based; settings: THP-1, 72 h
[7] = Cytotoxicity against human AHH-1 cells assessed as residual cell viability at 1 uM measured after 72 hrs by MTT assay relative to control; assay type: toxicity, cell-based; settings: read-out: Activity
MV4-11 [8] = assay: Antiproliferative activity against human MV4-11 cells assessed as inhibition of cell growth at 0.2 to […] incubated for 72 hrs by trypan blue staining based analysis; assay type: functional; settings: dose 0.2-2.5 µM
MV4-11 [9] = assay: Antiproliferative activity against human MV4-11 cells assessed as inhibition of cell growth at 1 uM incubated for 144 hrs by trypan blue staining based analysis; assay type: functional
[10] = biological target: Lysine-specific histone demethylase 1A (Homo sapiens) (UniProt O60341); assay: Inhibition of LSD1 in human MV4-11 cells assessed as increase in H3K4me2 level at 0.2 to […] incubated for 24 hrs by Western blot analysis; assay type: cell-based; settings: dose 0.2-2.5 µM
[11] = biological target: Lysine-specific histone demethylase 1A (Homo sapiens) (UniProt O60341); assay: Inhibition of LSD1 in human MV4-11 cells assessed as increase in CD86 expression level incubated for 24 hrs by qRT-PCR analysis; assay type: cell-based; settings: dose 0.2-1 µM
MV4-11 [12] = assay: Induction of cell cycle arrest in human MV4-11 cells assessed as accumulation of cells at G1 phase at 0.2 to […] incubated for 24 hrs; assay type: functional, cell-based; settings: dose 0.2-2.5 µM
MV4-11 [13] = assay: Induction of apoptosis in human MV4-11 cells assessed as accumulation of cells at sub-G1 phase incubated for 24 hrs; assay type: functional, cell-based; settings: dose 0.2-25 µM, DDE = dose-dependent effect
MDA-MB-231 = assay: Antiproliferative activity against human MDA-MB-231 cells assessed as inhibition of cell growth measured after 72 hrs by MTT assay; assay type: functional, cell-based; settings: MDA-MB-231, 72 h
[14] = Cytotoxicity against HMEC cells assessed as residual cell viability at 1 uM incubated for 72 hrs by MTT assay relative to control; assay type: toxicity, cell-based; settings: human, read-out: Activity
RD [15] = assay: Antiproliferative activity against human RD cells assessed as inhibition of cell growth incubated for 24 hrs; assay type: functional, cell-based
RD [16] = assay: Antiproliferative activity against human RD cells assessed as inhibition of cell growth incubated for 72 hrs; assay type: functional, cell-based
RD [17] = assay: Antiproliferative activity against human RD cells assessed as inhibition of cell growth incubated for 144 hrs; assay type: functional, cell-based
SJRH30 [18] = assay: Antiproliferative activity against human Rh30 cells assessed as inhibition of cell growth incubated for 24 hrs; assay type: functional, cell-based; settings: SJRH30, 24 h
SJRH30 [19] = assay: Antiproliferative activity against human Rh30 cells assessed as inhibition of cell growth incubated for 72 hrs; assay type: functional, cell-based; settings: SJRH30, 72 h
SJRH30 [20] = assay: Antiproliferative activity against human Rh30 cells assessed as inhibition of cell growth incubated for 144 hrs; assay type: functional, cell-based; settings: SJRH30, 144 h
[21] = Cytotoxicity against human derived mesenchymal stem cells assessed as residual cell viability at 1.25 uM measured after 72 hrs relative to control; assay type: toxicity, cell-based; settings: read-out: Activity
[22] = biological target: Lysine-specific histone demethylase 1A (Homo sapiens) (UniProt O60341); assay: Inhibition of LSD1 in human RD cells assessed as increase in H3K4me2 level at 1 uM incubated for 48 hrs by Western blot analysis; assay type: cell-based
[23] = biological target: Lysine-specific histone demethylase 1A (Homo sapiens) (UniProt O60341); assay: Inhibition of LSD1 in human Rh30 cells assessed as increase in H3K4me2 level at 1 uM incubated for 48 hrs by Western blot analysis; assay type: cell-based
SJRH30 [24] = assay: Antiproliferative activity against human Rh30 cells assessed as reduction in live cells at 2 uM incubated for 24 hrs by calceinAM/propidium iodide staining based fluorescence microscopy; assay type: functional, cell-based
RD [25] = assay: Induction of apoptosis in human RD cells assessed as increase in caspase 3/7 level at 2 uM incubated for 24 hrs; assay type: functional, cell-based
SJRH30 [26] = assay: Induction of apoptosis in human Rh30 cells assessed as increase in caspase 3/7 level at 2 uM incubated for 24 hrs; assay type: functional, cell-based

Histone-lysine N-methyltransferase, H3 lysine-79 specific (Homo sapiens), sequence (Q8TEK3 whole entry, looked up): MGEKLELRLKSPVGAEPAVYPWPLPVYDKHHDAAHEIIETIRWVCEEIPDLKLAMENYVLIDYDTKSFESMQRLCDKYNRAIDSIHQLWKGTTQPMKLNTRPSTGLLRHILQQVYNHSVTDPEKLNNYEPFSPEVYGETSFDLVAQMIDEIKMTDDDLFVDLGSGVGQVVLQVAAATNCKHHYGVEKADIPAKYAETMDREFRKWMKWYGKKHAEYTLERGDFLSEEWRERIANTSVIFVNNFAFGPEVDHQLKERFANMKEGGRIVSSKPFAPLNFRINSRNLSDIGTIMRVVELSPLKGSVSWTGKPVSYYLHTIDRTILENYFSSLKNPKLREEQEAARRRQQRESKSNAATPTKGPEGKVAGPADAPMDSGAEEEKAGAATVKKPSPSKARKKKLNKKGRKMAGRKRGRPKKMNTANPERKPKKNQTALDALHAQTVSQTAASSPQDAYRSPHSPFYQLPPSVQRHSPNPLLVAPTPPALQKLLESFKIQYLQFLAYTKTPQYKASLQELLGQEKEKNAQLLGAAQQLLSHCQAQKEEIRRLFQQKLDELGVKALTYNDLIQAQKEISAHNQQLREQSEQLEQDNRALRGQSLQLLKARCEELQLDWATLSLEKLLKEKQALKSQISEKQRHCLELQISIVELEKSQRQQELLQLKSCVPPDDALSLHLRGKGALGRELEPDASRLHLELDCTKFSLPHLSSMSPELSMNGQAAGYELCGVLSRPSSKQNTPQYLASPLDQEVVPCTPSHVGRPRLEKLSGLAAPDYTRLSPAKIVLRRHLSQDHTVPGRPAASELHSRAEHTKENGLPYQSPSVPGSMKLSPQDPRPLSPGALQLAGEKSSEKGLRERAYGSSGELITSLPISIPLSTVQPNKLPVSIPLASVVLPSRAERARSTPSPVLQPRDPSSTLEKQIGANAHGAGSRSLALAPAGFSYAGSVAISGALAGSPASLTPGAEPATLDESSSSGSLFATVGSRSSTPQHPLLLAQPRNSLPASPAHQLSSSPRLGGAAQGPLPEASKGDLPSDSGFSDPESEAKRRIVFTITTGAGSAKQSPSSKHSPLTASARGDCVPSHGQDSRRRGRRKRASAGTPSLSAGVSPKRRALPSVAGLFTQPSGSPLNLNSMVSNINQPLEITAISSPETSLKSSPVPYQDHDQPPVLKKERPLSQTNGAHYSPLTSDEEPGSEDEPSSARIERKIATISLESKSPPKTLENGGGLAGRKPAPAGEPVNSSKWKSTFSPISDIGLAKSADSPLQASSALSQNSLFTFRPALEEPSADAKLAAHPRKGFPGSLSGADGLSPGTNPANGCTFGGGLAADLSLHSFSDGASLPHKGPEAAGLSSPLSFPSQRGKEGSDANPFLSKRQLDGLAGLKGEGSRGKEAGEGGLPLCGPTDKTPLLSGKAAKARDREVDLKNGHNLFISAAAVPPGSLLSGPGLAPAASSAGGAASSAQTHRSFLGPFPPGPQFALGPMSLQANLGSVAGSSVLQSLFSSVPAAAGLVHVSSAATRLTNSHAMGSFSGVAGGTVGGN

inhibition [1]: 22.6%
inhibition [2]: 1.8%
inhibition at 100 µM [3]: 0.8%
inhibition at 100 µM [4]: 0.5%
IC50 (THP-1 [5]): 270 nM
IC50 (THP-1 [6]): 170 nM
inhibition [10]: Active
inhibition [11]: Active
IC50 (MDA-MB-231): 400 nM
inhibition [22]: Active
inhibition [23]: Active
SMILES: COc1cc2c(NC3CCN(Cc4ccccc4)CC3)nc(NCCCN(C)C)nc2cc1OCc1ccccc1
viability at 72 h, 1 µM [7]: 90%
inhibition (MV4-11 [8]): Active
inhibition (MV4-11 [9]): Active
Activity (MV4-11 [12]): Active
Activity (MV4-11 [13]): Dde
viability at 72 h, 1 µM [14]: 76%
IC50 (RD [15]): 1230 nM
IC50 (RD [16]): 850 nM
IC50 (RD [17]): 730 nM
IC50 (SJRH30 [18]): 1240 nM
IC50 (SJRH30 [19]): 960 nM
IC50 (SJRH30 [20]): 680 nM
viability at 72 h, 1.25 µM [21]: 92%
Activity (SJRH30 [24]): Active
Activity (RD [25]): Active
Activity (SJRH30 [26]): Active

Source: ChEMBL document CHEMBL5120862, “Novel non-covalent LSD1 inhibitors endowed with anticancer effects in leukemia and solid tumor cellular models” (Eur J Med Chem, 2022)
